Measured values: paper PMC9106635, “Stimulation of the atypical chemokine receptor 3 (ACKR3) by a small-molecule agonist attenuates fibrosis in a preclinical liver but not lung injury model” (Cellular and Molecular Life Sciences: CMLS, 2022)
Like-named read-outs stand apart in the source and are kept apart here.

Experiments:
hACKR3 [1] = biological target: T1, hACKR3 (Homo sapiens, UniProt P25106); experiment: CXCL12^AF647 competition binding, U87.CD4.ACKR3 cells
Description: (§1) Binding affinity to human (h)CXCR4 and human (h)ACKR3 was investigated with a competition binding assay using CXCL12^AF647 (Almac, UK) as the tracer molecule. Jurkat cells (human T lymphocytic cell line, hCXCR4 positive) or U87.CD4.ACKR3 cells (human glioblastoma cell line, hACKR3 positive) were resuspended in assay buffer [Hank’s Balanced Salt Solution (HBSS, Thermo Fisher Scientific), 20 mM HEPES buffer, 0.2% bovine serum albumin (Sigma-Aldrich), pH 7.4] at 3 × 10^5 cells per sample and treated with increasing concentrations of compound at RT for 15 min. A fixed amount of CXCL12^AF647 (2.9 nM and 1.45 nM in case of hCXCR4 and hACKR3, respectively) was added and cells were incubated at RT for 30 min protected from light. Cells were finally fixed in 1% paraformaldehyde in DPBS and the CXCL12^AF647 binding signal [i.e., mean fluorescence intensity (MFI)] was quantified by flow cytometry (FACSCanto™; Becton Dickinson). Data were analyzed with FlowJo® Software. For all samples the background MFI (i.e., autofluorescence of untreated and unlabeled cells) was subtracted. The percentage inhibition for each compound concentration was calculated relative to the positive control (i.e., untreated cells exposed to CXCL12^AF647 only). Four parameter non-linear curve fitting (GraphPad Prism 9.0.2) was used to determine the IC50 value for binding inhibition.

hCXCR4 [2] = biological target: T2, hCXCR4 (Homo sapiens, UniProt P61073); experiment: CXCL12^AF647 competition binding, Jurkat cells
T2 sequence (P61073 whole entry): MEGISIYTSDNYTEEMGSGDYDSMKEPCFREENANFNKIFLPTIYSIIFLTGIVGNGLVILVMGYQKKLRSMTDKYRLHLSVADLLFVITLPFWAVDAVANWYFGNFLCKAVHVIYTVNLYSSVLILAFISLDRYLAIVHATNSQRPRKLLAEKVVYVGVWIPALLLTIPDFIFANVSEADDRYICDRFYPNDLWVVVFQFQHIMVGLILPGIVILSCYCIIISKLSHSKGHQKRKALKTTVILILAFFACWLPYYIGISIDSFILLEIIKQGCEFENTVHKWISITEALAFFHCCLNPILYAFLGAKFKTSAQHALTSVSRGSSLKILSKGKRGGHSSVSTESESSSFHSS
Description: as §1

hCCR5 = biological target: T3, hCCR5 (Homo sapiens, UniProt P51681); experiment: Ca2+ mobilization assay, U87.CD4.CCR5 cells, CCL5-induced; type: cell-based; conditions: antagonism of CCL5 response
T3 construct: expressed in transfected cells; host or cells: U87.CD4.CCR5
T3 sequence (P51681 whole entry): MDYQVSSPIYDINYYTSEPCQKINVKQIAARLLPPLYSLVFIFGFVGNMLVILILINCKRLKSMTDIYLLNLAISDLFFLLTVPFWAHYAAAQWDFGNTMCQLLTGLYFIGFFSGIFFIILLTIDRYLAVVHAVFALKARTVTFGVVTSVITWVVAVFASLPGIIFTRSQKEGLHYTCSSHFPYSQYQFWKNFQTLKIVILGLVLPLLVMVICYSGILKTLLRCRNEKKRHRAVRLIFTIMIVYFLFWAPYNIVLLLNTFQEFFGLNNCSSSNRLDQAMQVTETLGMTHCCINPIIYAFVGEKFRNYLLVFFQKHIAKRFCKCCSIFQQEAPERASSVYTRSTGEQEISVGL
Description: (§2) The calcium (Ca^2+) mobilization assay was described in detail before. Briefly, U87.CD4.CXCR4 or U87.CD4.CCR5 cells (2 × 10^4 cells per well in DMEM/10% FBS/0.01 M HEPES) were seeded in gelatin-coated (Sigma-Aldrich; 0.1% gelatin in DPBS) black-walled 96-well plates and incubated overnight at 37 °C and 5% CO2. The next day, cells were loaded with the fluorescent Ca^2+ indicator Fluo-2 acetoxymethyl (AM) ester (4 μM final concentration; Abcam) and incubated at RT in the dark for 45 min. Then, cells were washed with assay buffer (see above) and subsequently incubated with different concentrations of compound for ~ 10 min prior to addition of 6.25 nM CXCL12 (in case of CXCR4) or 6.4 nM CCL5 (in case of CCR5). Fluctuations in intracellular Ca^2+ levels were measured in real time by the FLIPR Tetra® device (Molecular Devices) in all 96 wells simultaneously. The response (Relative Light Units, RLUs) over baseline was calculated (ScreenWorks 4.0® software, Molecular Devices) by dividing the RLUs by a base line value measured just before addition of CXCL12 or CCL5, respectively. Inhibition of the Ca^2+ response was determined taking into account negative (i.e., untreated cells without stimulation) and positive (i.e., untreated cells stimulated with either CXCL12 or CCL5) control samples.

[3] = design: method as in PMID 29627981; conditions: cited from earlier work
hCXCR4 [4] = biological target: T2, hCXCR4; experiment: Ca2+ mobilization assay, U87.CD4.CXCR4 cells, CXCL12-induced; type: cell-based; design: expressed in transfected cells; host or cells: U87.CD4.CXCR4; conditions: antagonism of CXCL12 response
Description: as §2

hACKR3 [5] = biological target: T1, hACKR3; experiment: β-arrestin2 recruitment assay (PathHunter CHO-K1 CXCR7 β-arrestin cell line); type: cell-based; design: host or cells: CHO-K1 (PathHunter CXCR7 β-arrestin cell line)
Description: β-arrestin2 recruitment downstream of ACKR3 activation was analyzed using the PathHunter CHO-K1 CXCR7 β-arrestin Cell Line (93-0248C2; DiscoverX). Cells were cultured in AssayComplete™ Cell Culture Kit-107 (92-3107G; DiscoverX) at 37 °C and 5% CO2. Briefly, 20,000 cells/well were seeded in AssayComplete™ Cell Plating 2 Reagent (93-0563R2A; DiscoverX) in a white 96-well plate (100 µL/well) with clear bottom (Costar, 3610) and incubated overnight at 37 °C and 5% CO2. The next day, 10 µL/well of test compound (11 × concentrated) was added and cells were incubated for 90 min at 37 °C and 5% CO2. Compounds were tested in duplicate in a 1:4 dilution series ranging from 1000 nM to 0.06 nM final concentration. After incubation, 55 µL/well of detection reagent (PathHunter Detection kit; 93-0001; DiscoverX) was added and cells were incubated for 1 h at room temperature (RT) protected from light. Finally, luminescence was measured using a FLIPR Tetra® device (Molecular Devices, Sunnyvale, CA, USA). Four parameter non-linear curve fitting (GraphPad Prism 9.0.2) was used to determine the EC50 value for β-arrestin2 recruitment.

T1 sequence (P25106 whole entry): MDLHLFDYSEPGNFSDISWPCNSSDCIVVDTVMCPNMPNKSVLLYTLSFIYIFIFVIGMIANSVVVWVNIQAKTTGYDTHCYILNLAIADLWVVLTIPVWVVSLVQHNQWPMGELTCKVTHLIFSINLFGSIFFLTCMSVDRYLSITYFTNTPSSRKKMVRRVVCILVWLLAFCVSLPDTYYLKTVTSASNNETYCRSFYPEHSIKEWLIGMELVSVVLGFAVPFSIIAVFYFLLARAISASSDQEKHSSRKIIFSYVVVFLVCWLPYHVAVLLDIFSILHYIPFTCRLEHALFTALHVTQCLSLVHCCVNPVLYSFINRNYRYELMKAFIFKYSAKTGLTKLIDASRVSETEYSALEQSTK

In the case of `CCc1ccn2ccnc2c1N1CCCN(C(CC(N)=O)C2CCN(C(=O)C3CC4CCC3O4)CC2)CC1` (stereo not drawn) [compound 18a], the IC50 (hACKR3 [1]; hACKR3, mean ± SD of three independent experiments) is reported as 20.5 ± 6.34 nM, the “higher hACKR3 binding affinity compared to compound 18b” value (hACKR3 [1]; ratio of IC50 values) is reported as “five-fold” and the IC50 (hCXCR4 [2]) is reported as greater than 4000 nM. The IC50 (hCCR5) was greater than 40000 nM, the “free fraction in mouse plasma” value [3] was 34% and the IC50 (hCXCR4 [4]) was greater than 40000 nM. For the same compound, the EC50 (hACKR3 [5]; conversion of 3.16 nM, read-out: EC50 β-arrestin2 recruitment expressed in ng/mL (converted)) was 3.25 nM, the EC50 (hACKR3 [5]; mean ± SD of two independent experiments, read-out: EC50 β-arrestin2 recruitment) was 3.16 ± 0.12 nM and the EC50 (hACKR3 [5]; taking into account 34% free fraction, read-out: EC50 corrected for free fraction in mouse plasma (target value) (converted)) was 9.95 nM.
